Results: the NIST ThermoML archive (doi:10.1016/j.tca.2009.07.008)

Assay: mn = molality of the nth substance listed, in mol/kg
Settings: 303.15 K, 101 kPa, Liquid, Capillary tube (Ostwald / Ubbelohde) method

CCCN(CCC)CCC [tripropylamine] + C1CCOC1
Settings	viscosity [mPa·s]
m1 = 0.1317	0.3305
m1 = 0.2429	0.3364
m1 = 0.3465	0.3397
m1 = 0.4545	0.3447
m1 = 0.5811	0.3523
m1 = 0.6842	0.3577
m1 = 0.8378	0.3607
m1 = 0.9371	0.3681
m1 = 1.114	0.3753

CCCCN(CCCC)CCCC [tributylamine] + C1CCOC1
Settings	viscosity [mPa·s]
m1 = 0.1637	0.3385
m1 = 0.3071	0.3517
m1 = 0.4107	0.3637
m1 = 0.5836	0.3764
m1 = 0.7131	0.3894
m1 = 0.9025	0.4036
m1 = 1.125	0.4181
m1 = 1.204	0.4323
m1 = 1.31	0.4444

CCCN [propan-1-amine] + C1COCCO1
Settings	viscosity [mPa·s]
m1 = 0.1086	1.06
m1 = 0.2456	1.043
m1 = 0.3295	1.028
m1 = 0.478	1.014
m1 = 0.5767	0.9987
m1 = 0.7164	0.9852
m1 = 0.8321	0.9693
m1 = 1.028	0.9504
m1 = 1.116	0.9395

CCCN [propan-1-amine] + C1CCOC1
Settings	viscosity [mPa·s]
m1 = 0.1123	0.328
m1 = 0.2842	0.3315
m1 = 0.3986	0.3329
m1 = 0.5609	0.3353
m1 = 0.7487	0.3395
m1 = 0.8957	0.3412
m1 = 1.002	0.3436
m1 = 1.139	0.3453
m1 = 1.377	0.3513

CCCCN(CCCC)CCCC [tributylamine] + C1COCCO1
Settings	viscosity [mPa·s]
m1 = 0.1229	1.062
m1 = 0.2173	1.05
m1 = 0.3227	1.033
m1 = 0.4476	1.023
m1 = 0.5768	1.008
m1 = 0.7655	0.9912
m1 = 0.8789	0.9804
m1 = 1.028	0.9659
m1 = 1.179	0.9569

CCN(CC)CC [triethylamine] + C1COCCO1
Settings	viscosity [mPa·s]
m1 = 0.159	1.054
m1 = 0.2697	1.042
m1 = 0.4098	1.018
m1 = 0.5388	0.998
m1 = 0.6616	0.98
m1 = 0.8419	0.955
m1 = 0.9909	0.932
m1 = 1.135	0.914
m1 = 1.27	0.894

CCCNCCC [dipropylamine] + C1CCOC1
Settings	viscosity [mPa·s]
m1 = 0.1794	0.332
m1 = 0.285	0.335
m1 = 0.4155	0.3388
m1 = 0.5881	0.3437
m1 = 0.7109	0.3491
m1 = 0.9435	0.3545
m1 = 1.051	0.3574
m1 = 1.198	0.364
m1 = 1.357	0.3717

CCN(CC)CC [triethylamine] + C1CCOC1
Settings	viscosity [mPa·s]
m1 = 0.1482	0.327
m1 = 0.3064	0.3293
m1 = 0.4546	0.3307
m1 = 0.588	0.3315
m1 = 0.7856	0.3361
m1 = 0.8993	0.3349
m1 = 1.056	0.3376
m1 = 1.24	0.3386
m1 = 1.418	0.341
